Assay [1] has as its system RAD51 siRNA transfected HeLa cells. As to the kind of experiment: Clonogenic survival, HeLa cells with RAD51 RNAi silencing. Type of assay: cell-based, human. The conditions noted are these: continuous treatment. An excerpt: Clonogenic survival curves of transfected HeLa cells under constant exposure to a range of concentrations of PARP inhibitor (KU0058684) for 12-14 days. […] SF50 for pSUPER-CFP-CONTROL transfected cells is >1×10^−5 M and is 1×10^−6 M for pSUPER-CFP-17/19/23 transfected cells.
HeLa cells were transfected using FuGene (Roche, USA) according to the manufacturers instructions. For clonogenic survival assays, cells were co-transfected in 6 well plates with pSUPER and a vector expressing blasticidin resistance (pEF-Bsd, Invitrogen, USA) at a ratio of 10:1 (pSUPER: pEF-Bsd). Twenty-four hours after transfection, cells were plated into replica plates and this was followed by treatment with PARP inhibitors and blasticidin 48 hours post transfection.

Assay [2] deals with HeLa cells transfected with ATM, ATR, CHK1 or CHK2 silencing RNAi. In words: Cell viability, HeLa cells transfected with ATM, ATR, CHK1 or CHK2 silencing RNAi. It counts as cell-based, human. Particulars: five days. The procedure:
(§1) For cell viability assays, HeLa cells were co-transfected with pSUPER and pEFBsd in 96 well plates using FuGene (Roche, USA) according to the manufacturers instructions. Twenty-four hours after transfection, cells were plated into replica plates and this was followed by treatment with PARP inhibitors and blasticidin 48 hours post transfection. Media containing PARP inhibitors and blasticidin was replenished five days post-transfection and cell viability was measured at seven days using the 96 well plate CellTitre-Glo™ Luminescent Cell Viability Assay kit (Promega, USA, according to the manufacturers instructions).

The next assay has as its system Brca1 deficient ES cells. In words: Clonogenic assay, continuous exposure, Brca1 deficient ES cells. Type of assay: cell-based, mouse. The procedure:
(§2) For measurement of sensitivity to chemical inhibitors, cell cultures e.g. ES cells or mouse embryonic fibroblasts, in exponential growth were trypsinised and seeded at various densities in 6-well plates onto confluent monolayer of Mitomycin C (MMC) inactivated mouse embryonic fibroblasts and, where appropriate, treated with inhibitors after 18 h. For continuous exposure, cells were re-fed every 4 days with fresh medium and inhibitor. For timed exposures, inhibitor was added for the specified period then cells were washed and re-fed with fresh medium. After 10-14 days, cells were washed with PBS, fixed in methanol and stained with crystal violet. Colonies containing greater than approximately 50 cells were counted. Experiments were performed at least three times in triplicate.

Another assay has as its target vault PARP (Homo sapiens, UniProt Q9UKK3). As to the kind of experiment: Selectivity: vault PARP inhibition. Particulars: at concentrations up to 1 μM. It counts as biochemical.
Another assay relates to Brca2 deficient ES cells. In words: Clonogenic assay, continuous exposure, Brca2 deficient ES cells. It counts as cell-based, mouse. The procedure:
as §2

In assay [3] the test system is Fancd2−/−, Fanca−/−, Fancc−/− and Fanca−/−c−/− fibroblasts. In words: Clonogenic survival, Fanconi anaemia mouse fibroblasts. Type of assay: cell-based. The conditions noted are these: continuous exposure 12-14 days. Here is the method: Mouse fibroblasts from wild-type, Fancd2^−/−, Fanca^−/−, Fancc^−/− and Fanca^−/−c^−/− animals were obtained from the Fanconi Anaemia Cell Repository, Oregon Health and Science University. These cells were maintained in DMEM, supplemented with FCS (10% v/v), glutamine and antibiotics. RAD54 and RAD52 Embryonic Stem (ES) cells were grown in DMEM, supplemented with FCS (15% v/v), glutamine, antibiotics, non-essential amino acids, 2-mercaptoethanol and Leukemia inhibitory Factor. HeLa cells (CCL-2) were obtained from ATCC (USA) and were maintained in DMEM, supplemented with FCS (10% v/v), glutamine and antibiotics.
as §2

The next assay relates to Rad52 deficient ES cells. In words: Clonogenic survival, Rad52 deficient ES cells. Type of assay: cell-based. Here is the method: as §2
The subject of assay [4] is HeLa cells transfected with DSS1 and RPA siRNA plasmids. As to the kind of experiment: Cell viability, HeLa cells transfected with DSS1 and RPA siRNA plasmids. Type of assay: cell-based, human. The procedure:
as §1

A further assay has as its target PARP-2 (Homo sapiens, UniProt Q9UGN5). As to the kind of experiment: Inhibition of poly(ADP-ribose) polymerase activity of PARP-2. Type of assay: biochemical.
A further assay relates to tankyrase. Particulars: at concentrations up to 1 μM.
The target of another assay is PARP-3 (Homo sapiens, UniProt Q9Y6F1). In words: Selectivity: PARP-3 inhibition. The conditions noted are these: at concentrations up to 1 μM. It counts as biochemical.
Chain of PARP-3 (Q9Y6F1 whole entry, species assumed): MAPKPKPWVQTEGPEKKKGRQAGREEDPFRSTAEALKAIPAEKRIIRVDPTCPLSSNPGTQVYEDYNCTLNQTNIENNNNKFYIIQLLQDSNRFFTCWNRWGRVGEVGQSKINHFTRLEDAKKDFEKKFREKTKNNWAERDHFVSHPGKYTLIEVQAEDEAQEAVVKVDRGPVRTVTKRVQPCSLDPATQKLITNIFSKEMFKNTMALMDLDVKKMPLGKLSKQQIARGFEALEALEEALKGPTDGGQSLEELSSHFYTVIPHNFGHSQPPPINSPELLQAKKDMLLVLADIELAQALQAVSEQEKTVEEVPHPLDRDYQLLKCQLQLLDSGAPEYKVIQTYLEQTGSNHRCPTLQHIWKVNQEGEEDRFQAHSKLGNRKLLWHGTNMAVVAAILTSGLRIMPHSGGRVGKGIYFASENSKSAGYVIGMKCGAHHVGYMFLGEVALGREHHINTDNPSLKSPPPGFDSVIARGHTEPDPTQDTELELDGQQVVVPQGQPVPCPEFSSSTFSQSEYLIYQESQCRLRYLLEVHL
Assay [5] relates to HeLa cells with BRCA1, BRCA2 and RAD51 silencing. As to the kind of experiment: Cell viability, HeLa cells with BRCA1, BRCA2 or RAD51 silencing. Type of assay: cell-based, human. Particulars: five days. The procedure:
as §1

The test system of the next assay is HeLa cells. In words: Cell viability, HeLa cells exposed to PARP inhibitor and caffeine. Particulars: 1 mM Caffeine plus KU0058684.
In another assay the test system is HT29 cells. As to the kind of experiment: SRB cell growth assay, ATM/PARP inhibitor combination. Particulars: KU-0059436 plus KU-60019. It counts as cell-based. The procedure: (§3) Cell growth was assessed using the sulforhodamine B (SRB) assay (Skehan, P. et al (1990) J. Natl. Cancer Inst. 82, 1107-1112) 2,000 cells were seeded into each well of a flat-bottomed 96-well microtiter plate in a volume of […] and incubated for 6 hours at 37° C. Cells were either replaced with media alone or with media containing PARP inhibitor or ATM inhibitor or both at a range of concentrations shown. Cells were then allowed to grow for a further 96 hours after which the media was removed and the cells fixed with […] of ice cold 10% (w/v) trichloroacetic acid. The plates were incubated at 4° C. for 20 minutes and then washed four times with water. Each well of cells was then stained with […] of 0.4% (w/v) SRB in 1% acetic acid for 20 minutes before washing four times with 1% acetic acid. Plates were then dried for 2 hours at room temperature. The dye from the stained cells was solubilized by the addition of […] of 10 mM Tris Base into each well. Plates were gently shaken and left at room temperature for 30 minutes before measuring the optical density at 564 nm on a Microquant microtiter plate reader.

For the next assay, the system named is FT/pEBS7 ATM−/− cells. As to the kind of experiment: SRB cell growth assay, ATM deficient vs complemented cells. It counts as cell-based. The conditions noted are these: FT/pEBS7 ATM−/− vs FT/pEBS7-Y25 ATM+/+. The procedure: as §3
A further assay has as its system NBS1−/− fibroblast cells. In words: SRB cell growth assay, NBS1 deficient fibroblasts vs MRC5. Type of assay: cell-based. Here is the method:
as §3

Chain of vault PARP (Q9UKK3 whole entry): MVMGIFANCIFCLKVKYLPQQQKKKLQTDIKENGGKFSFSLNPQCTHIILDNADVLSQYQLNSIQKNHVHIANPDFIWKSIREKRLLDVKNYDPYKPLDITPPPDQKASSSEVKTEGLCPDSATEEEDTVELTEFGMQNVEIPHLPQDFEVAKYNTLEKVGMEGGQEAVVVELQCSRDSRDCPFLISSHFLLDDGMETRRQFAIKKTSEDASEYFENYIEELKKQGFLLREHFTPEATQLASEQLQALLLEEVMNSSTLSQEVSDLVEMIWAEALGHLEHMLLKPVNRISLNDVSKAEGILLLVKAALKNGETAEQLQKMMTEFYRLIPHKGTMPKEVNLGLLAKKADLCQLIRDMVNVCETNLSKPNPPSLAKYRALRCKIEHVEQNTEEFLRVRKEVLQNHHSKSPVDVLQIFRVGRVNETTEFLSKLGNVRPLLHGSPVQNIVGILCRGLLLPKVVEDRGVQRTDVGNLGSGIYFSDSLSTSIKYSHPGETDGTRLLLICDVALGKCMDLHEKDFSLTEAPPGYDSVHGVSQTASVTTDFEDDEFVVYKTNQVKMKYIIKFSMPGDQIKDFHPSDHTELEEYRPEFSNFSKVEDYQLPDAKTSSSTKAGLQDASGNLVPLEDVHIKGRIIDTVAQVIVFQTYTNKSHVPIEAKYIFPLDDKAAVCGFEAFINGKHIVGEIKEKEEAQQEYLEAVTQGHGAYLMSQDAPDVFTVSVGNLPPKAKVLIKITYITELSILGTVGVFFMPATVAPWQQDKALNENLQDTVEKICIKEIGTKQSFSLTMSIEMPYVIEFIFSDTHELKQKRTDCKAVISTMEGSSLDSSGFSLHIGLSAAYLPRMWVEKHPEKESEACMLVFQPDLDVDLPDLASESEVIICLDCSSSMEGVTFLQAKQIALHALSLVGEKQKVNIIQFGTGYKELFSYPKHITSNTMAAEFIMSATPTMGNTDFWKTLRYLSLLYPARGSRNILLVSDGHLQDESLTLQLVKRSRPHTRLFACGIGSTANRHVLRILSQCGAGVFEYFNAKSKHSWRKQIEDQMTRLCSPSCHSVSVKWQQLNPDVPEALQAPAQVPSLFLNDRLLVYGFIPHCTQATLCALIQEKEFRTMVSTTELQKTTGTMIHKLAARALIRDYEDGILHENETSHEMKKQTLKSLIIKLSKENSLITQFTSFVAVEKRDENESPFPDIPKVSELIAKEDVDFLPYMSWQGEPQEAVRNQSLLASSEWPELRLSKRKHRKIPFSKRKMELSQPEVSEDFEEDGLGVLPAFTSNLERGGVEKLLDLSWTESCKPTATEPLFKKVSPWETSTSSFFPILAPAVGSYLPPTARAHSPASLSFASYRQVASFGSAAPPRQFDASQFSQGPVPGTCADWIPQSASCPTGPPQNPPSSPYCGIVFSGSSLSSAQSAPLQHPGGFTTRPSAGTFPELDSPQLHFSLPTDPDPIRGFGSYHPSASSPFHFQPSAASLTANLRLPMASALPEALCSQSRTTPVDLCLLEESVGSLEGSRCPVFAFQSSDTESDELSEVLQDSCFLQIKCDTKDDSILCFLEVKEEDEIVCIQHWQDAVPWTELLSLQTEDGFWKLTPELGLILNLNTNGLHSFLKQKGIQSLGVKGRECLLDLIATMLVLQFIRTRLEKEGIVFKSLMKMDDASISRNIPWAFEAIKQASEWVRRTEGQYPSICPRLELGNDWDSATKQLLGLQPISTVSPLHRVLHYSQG
Chain of PARP-2 (Q9UGN5 whole entry): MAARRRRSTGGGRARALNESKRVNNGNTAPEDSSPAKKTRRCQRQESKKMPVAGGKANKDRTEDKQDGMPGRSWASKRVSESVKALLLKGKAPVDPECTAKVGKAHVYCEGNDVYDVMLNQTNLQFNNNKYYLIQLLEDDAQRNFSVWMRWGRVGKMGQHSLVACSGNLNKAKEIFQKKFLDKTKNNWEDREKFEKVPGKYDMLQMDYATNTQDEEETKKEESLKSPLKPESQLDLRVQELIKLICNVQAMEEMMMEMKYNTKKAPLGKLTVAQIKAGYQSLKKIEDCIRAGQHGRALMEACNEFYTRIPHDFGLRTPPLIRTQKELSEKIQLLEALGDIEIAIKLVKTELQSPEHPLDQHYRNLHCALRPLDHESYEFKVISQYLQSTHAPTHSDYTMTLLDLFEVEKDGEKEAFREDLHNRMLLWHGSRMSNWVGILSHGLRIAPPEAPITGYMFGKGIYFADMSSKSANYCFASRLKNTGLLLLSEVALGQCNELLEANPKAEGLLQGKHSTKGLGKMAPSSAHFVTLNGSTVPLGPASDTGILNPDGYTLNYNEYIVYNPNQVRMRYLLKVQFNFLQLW

As to `O=C(c1cc(Cc2n[nH]c(=O)c3ccccc23)ccc1F)N1CCCNCC1` [KU0058948], in [1], the “clonogenic survival of RAD51 siRNA transfected cells compared to control transfected cells” value was “significant reduction in the clonogenic survival”. In addition, in [2], the “sensitivity of ATM, ATR, CHK1, CHK2 siRNA transfected HeLa cells compared to control plasmid” value is “increased sensitivity”. Besides, the “sensitivity of Brca1 mutant cells relative to KU0058684” value with Brca1 deficient ES cells was “even greater than that of KU0058684”. For the same compound, the “sensitivity of Brca1 deficient cells compared to otherwise isogenic cells” value in the assay on Brca1 deficient ES cells (clonogenic assay) is “extremely sensitive”. For the same compound, on vault PARP, the “inhibition of vault PARP” value is “do not inhibit”. Moreover, the “sensitivity of Brca2 mutant cells relative to KU0058684” value in the assay on Brca2 deficient ES cells is reported as “even greater than that of KU0058684”. In the assay on Brca2 deficient ES cells (clonogenic assay), the “sensitivity of Brca2 deficient cells compared to otherwise isogenic cells” value is on record as “extremely sensitive”. The “sensitivity of FA gene deficient fibroblasts compared to wild-type cells” value in assay [3] was “results in sensitivity”. Also, the “sensitivity of Rad52 deficient ES cells compared to wild-type cells” value with Rad52 deficient ES cells was “no more sensitive”. The “sensitivity of DSS1 and RPA siRNA transfected cells compared to control plasmid” value in [4] is “enhanced sensitivity”. Also, the “inhibition of poly(ADP-ribose) polymerase activity of PARP-1 and PARP-2” value on PARP-2 was “potent and specific inhibitors”. Besides, the inhibition of tankyrase result in the assay on tankyrase is on record as “do not inhibit”. The “inhibition of PARP-3” value at PARP-3 is “do not inhibit”. In assay [5], the “sensitivity to PARP inhibition after BRCA1, BRCA2 and RAD51 silencing” value is “profound sensitivity”.
Turning to `Cn1c(=O)c2c(ncn2C)n(C)c1=O` [Caffeine, reference compound], in the assay with HeLa cells, the “sensitivity of HeLa cells to PARP inhibitor with caffeine” value is reported as “increased sensitivity”.
For `C[C@@H]1CN(CC(=O)Nc2ccc3c(c2)Cc2cccc(-c4cc(=O)cc(N5CCOCC5)o4)c2S3)C[C@H](C)O1` [KU-60019, reference compound], the “sensitivity to PARP inhibition with ATM inhibitor combination” value in the assay on HT29 cells was “Sensitivity to PARP inhibition was observed to increase with increasing concentrations of ATMI”.
On to `O=C(c1cc(Cc2n[nH]c(=O)c3ccccc23)ccc1F)N1CCN(C(=O)C2CC2)CC1` [KU0059436], for which, in the assay on HT29 cells, the “sensitivity to PARP inhibition with ATM inhibitor combination” value was “Sensitivity to PARP inhibition was observed to increase with increasing concentrations of ATMI”. Moreover, the “sensitivity of ATM deficient cells compared to wild-type cells” value in the assay with FT/pEBS7 ATM−/− cells is given as “more sensitive”. In addition, the “sensitivity of NBS1 deficient cells compared to wild-type cells” value in the assay on NBS1−/− fibroblast cells is “more sensitive”.
